{
  "source": "patent US4954347A",
  "about": "(priority 1988, dated 1990)",
  "key": {"[1]": {"settings": "human, in vivo; cited from earlier work"}, "[2]": {"system": "beta-adrenergic", "settings": "cited from earlier work"}, "[3]": {"system": "calcium", "settings": "cited from earlier work"}, "[4]": {"system": "supraventricular and ventricular arrhythmias", "settings": "in vivo; hydrochloride; cited from earlier work"}, "[5]": {"system": "fast inward sodium channels", "settings": "hydrochloride; cited from earlier work"}, "[6]": {"settings": "one patient; quinidine concomitantly with propafenone"}, "[7]": {"system": "electrically induced arrhythmias, ventricular tachycardias, circus-movement flutter", "settings": "experimental animals; cited from earlier work"}},
  "note": "Entries after “also recorded” stand apart in the source; their conditions may differ. Counter-ions that a name gives are not always drawn. Like-named read-outs stand apart in the source and are kept apart here.",
  "data": [
    {"smiles": "COCCc1ccc(OCC(O)CNC(C)C)cc1", "note": "(centres unmarked) [metoprolol]", "values": [
      {"measurement": "half-life", "setting": "[1]", "value": "3 to 7", "unit": "h"},
      {"measurement": "systemic bioavailability", "setting": "[1]", "value": "40-50%"},
      {"measurement": "beta-blocking activity", "setting": "[2]", "value": "primarily a beta-adrenergic blocking agent"}
    ]},
    {"smiles": "CCCNCC(O)COc1ccccc1C(=O)CCc1ccccc1", "note": "(centres unmarked) [propafenone, 2'-[3-(prophylamino)-2-(hydroxy)-(propoxy)-3-phenylpropiophenone hydrochloride]", "values": [
      {"measurement": "calcium antagonist activity", "setting": "[3]", "value": "weak calcium antagonist activity"},
      {"measurement": "suppression of supraventricular and ventricular arrhythmias", "setting": "[4]", "value": "effective against recurrent supraventricular and ventricular arrhythmias; also recorded: effective in suppressing both supraventricular and ventricular arrhythmias"},
      {"measurement": "beta-blocking activity", "setting": "[2]; hydrochloride", "value": "only a weak beta-blocker"},
      {"measurement": "blockade of fast sodium channels", "setting": "[5]", "value": "blocks fast inward sodium channels; also recorded: blockade of the fast sodium channel"}
    ]},
    {"smiles": "C=C[C@H]1C[N@@]2CC[C@H]1C[C@@H]2[C@@H](O)c1ccnc2ccc(OC)cc12", "note": "[quinidine]", "values": [
      {"measurement": "effect on the blood levels of propafenone", "setting": "[6]", "value": "very pronounced effect"},
      {"measurement": "\"late\" ventricular tachycardias following coronary artery occlusion", "setting": "[7]", "value": "prevent or terminate"},
      {"measurement": "circus-movement flutter", "setting": "[7]", "value": "terminate or prevent"},
      {"measurement": "threshold for electrically induced arrhythmias", "setting": "[7]", "value": "raise the threshold"}
    ]}
  ]
}
